# Earlier results as cited in patent publication US9072786B2, “Method of manufacturing an implantable device” (Endo Pharmaceuticals Solutions Inc., priority 2008, dated 2015).
# Tests used:
# [1] = concentration of surfactant at which micelles form
# [2] = hydrophilic-lipophilic balance of the surfactant
Compound,CMC [1] [mM],HLB [2]
CCCCCCCC/C=C\CCCCCCCC(=O)OCCOCC(OCCO)C1OCC(OCCO)C1OCCO (stereo not shown) [Tween 80],0.012,15
Sucrose monolaurate,0.2,~8
